Reference: paper PMC4696031 (Cancer, 2013)
Values joined by “and” are separate entries in the source; they are usually repeats but may differ in a detail not shown here. Equal entries are not always repeated.

Key:
advanced UC = conditions: vinflunine plus BSC, vs 1.5 months BSC alone, P = .001; cited from earlier work
[1] = tested on: locally advanced or metastatic urothelial cancer; assay: Phase 2 trial: tumor response; format: in vivo, patients
[2] = tested on: patients with locally advanced or metastatic urothelial cancer; assay: Phase 2 trial: safety, adverse events; format: in vivo
[3] = Phase 2 trial: plasma pharmacokinetics; format: in vivo, patients; conditions: for Tmax: first 2-hour intravenous infusion of 300 mg
UC cell lines = conditions: cited from earlier work
solid tumors = conditions: cited from earlier work
urothelial cancer = conditions: cited from earlier work
metastatic UC = conditions: cited from earlier work; for long-term progression-free survival (PFS): at 5 years; for complete response (CR) rate / median overall survival (mOS) / overall response rate: first-line, phase 3
[4] = post hoc subgroup: disease progression >6 months after most recent chemotherapy
[5] = post hoc subgroup: disease progression ≤6 months after most recent chemotherapy
[6] = subgroup: patients who did not escalate
[7] = subgroup: patients who escalated to volasertib 350 mg

CC[C@]12C=CCN3CC[C@@]4(c5cc([C@@]6(C(=O)OC)C[C@@H]7C[C@@H](C(C)(F)F)CN(Cc8c6[nH]c6ccccc86)C7)c(OC)cc5N(C)[C@H]4[C@@](O)(C(=O)OC)[C@@H]1OC(C)=O)[C@@H]32 [Vinflunine, vinflunine]
median PFS (mPFS) (advanced UC): 3.0 months

CC[C@@H]1C(=O)N(C)c2cnc(Nc3ccc(C(=O)N[C@H]4CC[C@H](N5CCN(CC6CC6)CC5)CC4)cc3OC)nc2N1C(C)C [Volasertib]
Disease control: PR + SD ([1]; N = 50): 20 (40) No. of patients (%)
OS rate at 3 mo ([1]; N = 50): 77.2%
OS rate at 6 mo ([1]; N = 50): 55.5%
OS: Median [95% CI] ([1]; N = 50): 8.5 [3.9-12.1] mo
PFS rate at 3 mo ([1]; N = 50): 32%
PFS rate at 6 mo ([1]; N = 50): 20%
PFS: Median [95% CI] ([1]; N = 50): 6.1 [5.6-11.1] wk
patients with partial response ([1]; N = 50): 14%
patients with stable disease ([1]; N = 50): 26%
Response: SD ([1]; best overall response, N = 50): 13 (26) No. of patients (%)
patients who achieved a PR as best overall response ([1]; final analysis, N = 50): 7 patients
overall response rate ([1]; final analysis, N = 50, all PRs): 14%
Duration of disease control, PR or SD: Median ([1]; in vivo): 27.0 wk
Duration of disease control, PR or SD: range ([1]; in vivo): 10.1-77.3 wk
patients with PR at preplanned interim efficacy analysis ([1]; of the first 20 patients who completed 4 treatment cycles): 2 patients
mPFS [1, 4]: 10.1 weeks
response rate [1, 4]: 15%
mPFS [1, 5]: 5.6 weeks
response rate [1, 5]: 14%
Duration of PR: range ([1]; responders): 29.1-77.3 wk
PR / response rate [1, 6]: 7.4% and 7%
mOS [1, 6]: 5.8 months
mPFS [1, 6]: 6.0 weeks and 6 weeks
PR / response rate [1, 7]: 21.7% and 22%
mOS [1, 7]: 10.6 months
mPFS [1, 7]: 11.1 weeks
Adverse event leading to dose reduction: Diarrhea ([2]; human, in vivo): 1 (2) No. of Patients (%)
Adverse event leading to dose reduction: ECG: Prolonged QT ([2]; human, in vivo): 1 (2) No. of Patients (%)
Adverse event leading to dose reduction: Fatigue ([2]; human, in vivo): 1 (2) No. of Patients (%)
Adverse event leading to dose reduction: Nausea ([2]; human, in vivo): 1 (2) No. of Patients (%)
Adverse event leading to dose reduction: Neutropenia ([2]; human, in vivo): 2 (4) No. of Patients (%)
Adverse event leading to dose reduction: Thrombocytopenia ([2]; human, in vivo): 3 (6) No. of Patients (%)
febrile neutropenia (grade 3) ([2]; human, in vivo): 1 episode
grade 3 and 4 anemia ([2]; human, in vivo): 16%
grade 3 and 4 neutropenia ([2]; human, in vivo): 28%
grade 3 and 4 thrombocytopenia ([2]; human, in vivo): 20%
patients with dose reductions because of unacceptable toxicities in cycle 1 ([2]; human, in vivo): 4 patients
patients with dose reductions because of unacceptable toxicities, overall ([2]; human, in vivo): 14%
treatment discontinuation because of AE ([2]; human, in vivo): 1 n
clinically relevant side effect such as arrhythmias or cardiac dysfunction ([2]; in vivo): No clinically relevant side effect
cumulative toxicity ([2]; in vivo): No cumulative toxicity was observed
grade 3 QTc prolongation ([2]; in vivo): One patient
safety profile ([2]; in vivo): acceptable safety profile
deaths attributed to the study treatment ([2]; three patients died during the study because of disease progression): none
effect of sex, age, weight, body mass index, or body surface area on PK profile ([3]; data not shown): not significantly affected
AUC(0-inf) ([3]; human, plasma, iv, 300 mg): 5470 ng·h/mL
Cmax ([3]; human, plasma, iv, 300 mg): 253 ng/mL
MRT ([3]; human, plasma, iv, 300 mg): 136 h
Vd ([3]; human, plasma, iv, 300 mg): 7470 L
clearance ([3]; human, plasma, iv, 300 mg): 914 mL/min
half-life ([3]; human, plasma, iv, 300 mg): 150 h
Tmax ([3]; human, plasma, iv, 300 mg, Median): ~2 h
Tmax ([3]; human, plasma, iv, 300 mg, Range): 1.53 to 4.17 h
PK behavior ([3]; plasma concentration-time course): multiexponential PK behavior
mitotic arrest and apoptosis in UC cells (UC cell lines): promote mitotic arrest and apoptosis
proliferation of multiple UC cell lines (UC cell lines; ref data on file, Boehringer Ingelheim): inhibited the proliferation
maximum tolerated dose (solid tumors; dose-escalation clinical phase 1 trial): 400 mg
recommended dose for phase 2 trials (solid tumors; in vivo, iv): 300 mg
tumor response in phase 1 trials (solid tumors; patients with heavily pretreated, metastatic UC): partial responses

Cc1ccc(Nc2nccc(N(C)c3ccc4c(C)n(C)nc4c3)n2)cc1S(N)(=O)=O [pazopanib]
antitumor activity in nonrandomized phase 2 trials (urothelial cancer): modest activity

gemcitabine plus cisplatin [GC]
long-term progression-free survival (PFS) (metastatic UC): 9.8%
complete response (CR) rate (metastatic UC): approximately 12%
median overall survival (mOS) (metastatic UC): 13.8 months
overall response rate (metastatic UC): 49%

methotrexate, vinblastine, doxorubicin, and cisplatin [MVAC]
long-term progression-free survival (PFS) (metastatic UC): 11.3%
complete response (CR) rate (metastatic UC): approximately 12%
median overall survival (mOS) (metastatic UC): 14.8 months
overall response rate (metastatic UC): 46%
